EC50 data for 35 molecules are collected here from patent publication US20070244155A1 (AMGEN INC., priority 2006, published 2007).

The assay addresses T1, human GPR40 (Homo sapiens, UniProt O14842).
T1 construct: expressed in transfected cells; host or cells: CHO cells
Description: Cell-based aequorin assay using human GPR40. Particulars: CHO cells transfected with GPR40 and aequorin expression vectors; aequorin luminescence; activation of human GPR40; read-out: Relative EC50. As for the experimental part: A cell-based aequorin assay may be employed to characterize the modulatory activity of compounds on the GPR40 signaling pathway. In an exemplary assay, CHO cells are transfected in a 15 cm plated containing 14 million cells with 5 μg of GPR40 expression vector and 5 μg of Aequorin expression vector (Euroscreen) using Lipofectamine 2000 (Invitrogen). After 17-24 hours post-transfection, cells are washed with phosphate buffered saline (PBS) and detached from the tissue culture dish with 2 mL of trypsin (0.25%(w/v)). Trypsinization is halted with 28 mL of Hanks Buffered Salt Solution containing 20 mM Hepes (H/HBSS) and 0.01% fatty acid-free bovine serum albumin (BSA) or 0.625% fatty acid-free human serum albumin (HSA). Coelantrazine is added to 1 ug/mL and the cells are incubated for 2 hours at room temperature. Cells are gently mixed every 15 minutes. Compounds are dissolved in dimethyl sulfoxide for preparation of 10 mM stock solutions. Compounds are diluted in H/HBSS containing either 0.01% BSA or 0.625% HSA. Serial dilutions of the test compounds are prepared to determine dose response. Aequorin luminescence measurements are made using an EG&G Berthold 96-well luminometer and the response is measured over a 20 second interval after cells and compounds are mixed. The area-under-curve from 2-20 seconds is plotted to determine dose response. The EC50 (effective concentration to reach 50% maximal response) is determined from the dose response plot. Table 1 includes representative data (EC50 values) obtained for exemplary compounds of the invention for the relative activation of human GPR40. […] Therefore, in some embodiments, the invention provides any of the compounds listed in Table 1 individually or as members of a group and pharmaceutically acceptable salts, esters, solvates, tautomers, stereoisomers, and/or prodrugs thereof.

T1 sequence (O14842 whole entry): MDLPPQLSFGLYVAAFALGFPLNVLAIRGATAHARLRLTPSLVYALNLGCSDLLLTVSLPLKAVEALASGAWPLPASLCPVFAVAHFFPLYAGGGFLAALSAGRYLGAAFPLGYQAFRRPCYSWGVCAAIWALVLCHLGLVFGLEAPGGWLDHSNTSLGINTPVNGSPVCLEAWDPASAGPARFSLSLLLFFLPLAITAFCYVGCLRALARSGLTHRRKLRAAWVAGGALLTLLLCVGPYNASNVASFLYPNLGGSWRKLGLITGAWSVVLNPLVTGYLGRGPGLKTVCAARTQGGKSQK

The EC50 is the concentration needed to bring the measured effect to its halfway point. Regarding `C=C(c1ccc(-c2ccccc2)cc1)c1ccc2c(c1)CCCC2CC(=O)O` (racemic) [Example 44, (R/S)-[6-(1-Biphenyl-4-yl-vinyl)-1,2,3,4-tetrahydro-naphthalen-1-yl]-acetic acid], the EC50 fell in the range of 1000 to 10000 nM.

As for `O=C(O)CCn1ccc2cc(OCc3ccccc3)ccc21` [Example 53], the concentration giving a half-maximal response (EC50) is 1000 to 10000 nM.

For `CCOc1ccc(F)c(-c2ccc(COc3ccc4c(c3)CCC[C@H]4CC(=O)O)cc2)c1` [Example 59, (S)-[6-(5′-Ethoxy-2′-fluoro-biphenyl-4-ylmethoxy)-1,2,3,4-tetrahydro-naphthalen-1-yl]-acetic acid], the 50% effective concentration (EC50) is 1000 to 10000 nM.

`Cc1ccc(-c2nc(C)c(COc3ccc4c(c3)CCC(C)C4CC(=O)O)s2)cc1` (mixture of isomers) [Example 24]: the concentration for a half-maximal effect (EC50) is 1000 to 10000 nM.

For `O=C(O)C[C@@H]1CCCc2cc(OCc3cccc(-c4ccc(C(F)(F)F)cc4)c3)ccc21` [Example 3, [(S)-6(4′-Trifluoromethyl-biphenyl-3-ylmethoxy)-1,2,3,4-tetrahydro-naphthalen-1-yl]-acetic acid], the EC50 fell in the range of 100 to 1000 nM.

`O=C(O)c1cc2ccc(OCc3cccc(Oc4ccccc4)c3)cc2oc1=O` [Example 54, 7-(3-Phenoxybenzyloxy)-2-oxo-2H-chromene-3-carboxylic acid]: the EC50 is 1000 to 10000 nM.

For `O=C(O)C1CCc2cc(OCc3cccc(-c4ccc(C(F)(F)F)cc4)c3)ccc2C1` (centres unmarked) [Example 31], the EC50 lay in the range of 1000 to 10000 nM.

`O=C(O)CC1CCCc2cc(OCc3cccc(-c4ccc(C(F)(F)F)cc4)c3)ccc21` (centres unmarked) [Example 8]: the concentration for a half-maximal effect (EC50) is 100 to 1000 nM.

As to `CCOc1ccccc1-c1ccc(COc2ccc3c(c2)CCC3CC(=O)O)cc1` (centres unmarked) [Example 12], the concentration giving a half-maximal response (EC50) lay within 100 to 1000 nM.

For the molecule `CCOc1ccccc1-c1ccc(COc2ccc3c(c2)CCCC3CC(=O)O)cc1` (centres unmarked) [Example 2, [6-(2′-Ethoxy-biphenyl-4-ylmethoxy)-1,2,3,4-tetrahydro-naphthalen-1-yl]-acetic acid], the concentration for a half-maximal effect (EC50) lay within 100 to 1000 nM.

For `Cc1c(Cl)cccc1-c1cccc(COc2ccc3c(c2)OCC[C@@H](C(=O)O)C3)c1` [Example 64], the EC50 lay in the range of 100 to 1000 nM.

Consider `C=C1CCc2cc(OCc3cccc(-c4ccc(C(F)(F)F)cc4)c3)ccc2C1CC(=O)O` (centres unmarked) [Example 38, 2-(6-(3-(4-Trifluoromethylphenyl)benzyloxy)-2-methylene-1,2,3,4-tetrahydronaphthalen-1-yl)acetic acid], for which the half-maximal effective concentration (EC50) lay in the range of 100 to 1000 nM.

Take `O=C(O)CC1CCCc2cc(CCc3ccc(C(F)(F)F)cc3)ccc21` (centres unmarked) [Example 48, {6-[2-(4-Trifluoromethyl-phenyl)-ethyl]-1,2,3,4-terahydro-naphthalen-1-yl}-acetic acid]: the concentration for a half-maximal effect (EC50) was in the range of 1000 to 10000 nM.

Turning to `Cc1ccc(-c2nc(C)c(COc3ccc4c(c3)C(CC(=O)O)CCC4)s2)cc1` (centres unmarked) [Example 17], the concentration for a half-maximal effect (EC50) was 1000 to 10000 nM.

For the molecule `Cc1ccc(-c2nc(C)c(COc3ccc4c(c3)CCC4CC(=O)O)s2)cc1` (centres unmarked) [Example 14], the EC50 fell in the range of 100 to 1000 nM.

Turning to `Cc1ccc(-c2nc(C)c(COc3ccc4c(c3)OCC[C@@H](C(=O)O)C4)s2)cc1` [Example 61, 8-((4-Methyl-2-p-tolylthiazol-5-yl)methoxy)-2,3,4,5-tetrahydrobenzo[b]oxepine-4-carboxylic acid], the EC50 lay within 100 to 1000 nM.

For the molecule `C=C(c1ccc(Oc2ccccc2)cc1)c1ccc2c(c1)CCCC2CC(=O)O` (racemic) [Example 45, (R/S)-{6-[1-(4-Phenoxy-phenyl)-vinyl]-1,2,3,4-tetrahydro-naphthalen-1-yl}-acetic acid], the EC50 is 1000 to 10000 nM.

For the molecule `CCOc1ccc(F)c(-c2ccc(COc3ccc4c(c3)CCC(C(=O)O)C4)cc2)c1` (racemic) [Example 72, (R/S)-6-(((5′-(ethoxy)-2′-fluoro-1,1′-biphenyl-4-yl)methyl)oxy)-1,2,3,4-tetrahydro-2-naphthalenecarboxylic acid], the EC50 was 1000 to 10000 nM.

For the molecule `O=C(O)CC1CCCc2cc(CCc3ccc(-c4ccccc4)cc3)ccc21` (centres unmarked) [Example 49, [6-(2-Biphenyl-4-yl-ethyl)-1,2,3,4-tetrahydro-naphthalen-1-yl]-acetic acid], the EC50 lay in the range of 1000 to 10000 nM.

For the molecule `C=C1COc2cc(OCc3ccc(-c4cc(C)ccc4OCCCC)cc3)ccc2[C@@H]1CC(=O)O` [Example 37, [(R)-7-(2′-Butoxy-5′-methyl-biphenyl-4-ylmethoxy)-3-methylene-chroman-4-yl]-acetic acid], the EC50 lay in the range of 100 to 1000 nM.

As to `COc1cccc(-c2ccc(COc3ccc4c(c3)CCC[C@H]4CC(=O)O)cc2)c1` [Example 57, (S)-[6-(3′-Methoxy-biphenyl-4-ylmethoxy)-1,2,3,4-tetrahydro-naphthalen-1-yl]-acetic acid], the EC50 lay within 1000 to 10000 nM.

For `Cc1ccc(-c2nc(C)c(COc3ccc4c(c3)CCCC4C(F)(F)C(=O)O)s2)cc1` (centres unmarked) [Example 33], the EC50 is 1000 to 10000 nM.

Turning to `O=C(O)CC1c2ccc(OCc3cccc(-c4ccc(C(F)(F)F)cc4)c3)cc2OCc2conc21` (racemic) [Example 71, (R/S)-(7-(((4′-(trifluoromethyl)-1,1′-biphenyl-3-yl)methyl)oxy)-4H,10H-[l]benzoxepino[4,3-c]isoxazol-10-yl)acetic acid], the 50% effective concentration (EC50) lay in the range of 1000 to 10000 nM.

`CCCCOc1ccc(C)cc1-c1ccc(COc2ccc3c(c2)CCC(C)C3CC(=O)O)cc1` (mixture of isomers) [Example 23]: the EC50 lay within 1000 to 10000 nM.

`Cc1c(Cl)cccc1-c1cccc(COc2ccc3c(c2)C(=O)NC3CC(=O)O)c1` (racemic) [Example 68]: the EC50 lay within 1000 to 10000 nM.

For the molecule `CCOc1ccccc1-c1ccc(COc2ccc3c(c2)C(CC(=O)O)CCC3)cc1` (centres unmarked) [Example 19], the EC50 was 1000 to 10000 nM.

As for `Cc1ccc(-c2nc(C)c(COc3ccc4c(c3)CCC[C@H]4CC(=O)O)s2)cc1` [Example 5], the 50% effective concentration (EC50) is below 100 nM.

As to `CCCCOc1ccc(C)cc1-c1ccc(COc2ccc3c(c2)CCC3CC(=O)O)cc1` (racemic) [Example 11, (R/S)-[5-(2′-Butoxy-5′-methyl-biphenyl-4-ylmethoxy)-indan-1-yl]-acetic acid], the EC50 lay in the range of 100 to 1000 nM.

For `C=C1COc2cc(OCc3sc(-c4ccc(C)cc4)nc3C)ccc2C1CC(=O)O` (centres unmarked) [Example 34, 2-(7-((4-methyl-2-p-tolylthiazol-5-yl)methoxy)-3-methylene-3,4-dihydro-2H-chromen-4-yl)acetic acid], the concentration for a half-maximal effect (EC50) is below 100 nM.

On to `C/C=C1/COc2cc(OCc3ccc(-c4cc(C)ccc4OCCCC)cc3)ccc2C1CC(=O)O` (centres unmarked) [Example 41], for which the EC50 was in the range of 100 to 1000 nM.

As for `CC1CCc2cc(OCc3cccc(-c4ccc(C(F)(F)F)cc4)c3)ccc2C1CC(=O)O` (mixture of isomers) [Example 22], the EC50 is 1000 to 10000 nM.

Consider `COc1ccc(/C=C/c2ccc3c(c2)CCCC3CC(=O)O)cc1` (centres unmarked) [Example 47, {6-[(E)-2-(4-Methoxy-phenyl)-vinyl]-1,2,3,4-tetrahydro-naphthalen-1-yl}-acetic acid], for which the 50% effective concentration (EC50) was in the range of 1000 to 10000 nM.

In the case of `Cc1c(Cl)cccc1-c1cccc(COc2ccc3c(c2)OCC[C@H](C(=O)O)C3)c1` [Example 65], the EC50 lay within 1000 to 10000 nM.

Regarding `CCOc1cccc(-c2ccc(COc3ccc4c(c3)C(CC(=O)O)CCC4)cc2)c1` (centres unmarked) [Example 16], the half-maximal effective concentration (EC50) was in the range of 1000 to 10000 nM.

`C=C1COc2cc(OCc3ccc(-c4cc(C)ccc4OCCCC)cc3)ccc2[C@H]1CC(=O)O` [Example 36, [(S)-7-(2′-Butoxy-5′-methyl-biphenyl-4-ylmethoxy)-3-methylene-chroman-4-yl]-acetic acid]: the EC50 is below 100 nM.
